Experimental findings from patent US20250188151A1, “C-JUN ANTAGONIST PEPTIDES” (The University of Bath, priority 2022, published 2025) are described below.

Series [1] deals with cJun bZIP (Homo sapiens, UniProt P05412, S292Y). Briefly: CD spectra and thermal denaturation of peptide/cJun heterodimers. The following applies: peptide (5 μM)/c-Jun (5 μM) heterodimer; Table 6.
Another series has as its target T1, cJun/TRE DNA interaction (Homo sapiens, UniProt P05412, S292Y).
T1 construct: The same 60 amino acid c-Jun bZIP construct was used for all experiments; His-SUMO (N, cleaved yes); made in house; host or cells: E. coli
Briefly: CD cJun/TRE DNA antagonism (shift of TRE DNA peak at ~281 nm, Hill fit). The following applies: ratio of CD IC50. In kind it is biochemical. From the text:
Briefly, in TBS the coding region for the essential gene dihydrofolate reductase (DHFR) is mutated to incorporate TRE sites so that introduction of c-Jun to this gene inside E. coli produces a transcriptional block that abrogates cell proliferation. The TRE site-bound c-Jun molecules sterically prevent RNA polymerase transcribing the essential gene and this can only be restored upon introduction of an effective c-Jun/TRE antagonist. Consequently, the survival of a particular cell is controlled by the ability of a peptide library member to remove the c-Jun transcriptional block and therefore to restore DHFR activity. TBS thus facilitates the identification of therapeutically valuable sequences. Further details for the TBS assay are provided in WO2020128015, which is incorporated herein by reference in its entirety. […] The TRE-DNA construct produces a positive CD peak at ˜281 nm, which decreases in intensity upon c-Jun binding. […] This method allows for the calculation of an IC50 value by fitting the titration data to a Hill equation. In some embodiments, the c-Jun antagonist is able to inhibit the DNA-binding activity of c-Jun within 10-fold of the ability of HingeW to inhibit the DNA-binding activity of c-Jun (e.g. the c-Jun antagonist has a reduced ability to inhibit the DNA-binding activity of c-Jun that is within 10-fold of that determined for HingeW). In some embodiments, the c-Jun antagonist is able to inhibit the DNA-binding activity of c-Jun within 9-fold, preferably within 8-fold, more preferably within 7-fold, even more preferably within 6-fold, yet more preferably within 5-fold of the ability of HingeW to inhibit the DNA-binding activity of c-Jun. The ability of the c-Jun antagonist and HingeW to inhibit the DNA-binding activity may be measured using the TBS assay (e.g. by quantifying the number of colonies) or by determining the IC50 using a circular dichroism assay described herein. Optionally, the c-Jun antagonist may have this activity when cross-linked. Methods for cross-linking peptides are described in more detail below.
Therefore, the acidic domain was the initial focus for optimisation. 1 was iteratively truncated (2-6) to investigate the effect on c-Jun binding and c-Jun/TRE DNA antagonism. […] Thermal denaturation experiments were then used to determine the Tm of peptide-c-Jun heterodimers, which was used as an approximate measure of target engagement. CD was also used to investigate the ability of the functional activity of peptides in antagonising the c-Jun/TRE DNA interaction. The TRE-DNA construct used produces a positive CD peak at ˜281 nm (no c-Jun absorbance at this wavelength allows for direct measurement of DNA upon binding) which decreases in intensity upon c-Jun binding. […] This allowed for the calculation of an IC50 value by fitting the titration data to a Hill equation. […] The same 60 amino acid c-Jun bZIP construct was used for all experiments, regardless of antagonist peptide length.

Another series concerns the target cJun (Homo sapiens, UniProt P05412, S292Y). Description: Isothermal titration calorimetry, Example 2 (PEAQ-ITC). In kind it is binding. More on the design: The same 60 amino acid c-Jun bZIP construct was used for all experiments; His-SUMO (N, cleaved yes); made in house; host or cells: E. coli. The conditions noted are these: ITC. Here is the method:
2 μL injections of antagonist peptide at 25-200 μM were injected into the cell containing cJun at 2.5-20 μM. Software was used to record and analyse the heat change upon addition. Control experiments involved the injection of the antagonist peptide sample into the cell containing ITC buffer alone to determine the heat of dilution which was subtracted. The resulting binding data were fit to a one site binding model to extract the enthalpy change of binding (ΔH) and the equilibrium binding constant (KD), from which the free energy change of binding (ΔG) and the entropy change of binding (ΔS) was calculated (Wiseman et al., 1989). Thermodynamic parameters are presented as an average of two independent experiments with errors given as one standard deviation.

Series [2] addresses T2, cJun bZIP (human, UniProt P05412 252-308, limits assumed).
T2 chain: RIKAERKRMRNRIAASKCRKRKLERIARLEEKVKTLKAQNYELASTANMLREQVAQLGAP
Briefly: cell-based or functional assay.

Series [3] concerns the target T2, cJun bZIP. Description: CD thermal denaturation, peptide 5 µM and c-Jun 5 µM.
For series [4], the target named is T2, cJun bZIP. Description: cell-based or functional assay.
The target of series [5] is T2, cJun bZIP. Description: ITC (PEAQ-ITC), peptide injected into cJun, one site model.

Bridge positions count the residues as written; N and C are the ends. Peptide text beside a SMILES is read from it.

For `CC[C@H](C)[C@@H]1NC(=O)[C@H](CCC(=O)O)NC(=O)[C@@H](NC(=O)[C@H](CCCNC(=N)N)NC(=O)[C@H](CC(C)C)NC(=O)[C@H](C)NC(=O)[C@H](Cc2ccc(O)cc2)NC(=O)[C@H](CC(N)=O)NC(=O)[C@H](CCCNC(=N)N)NC(=O)[C@H](CCC(=O)O)NC(=O)[C@H](CCC(=O)O)NC(=O)[C@H](CC(C)C)NC(=O)[C@H](CCC(N)=O)NC(=O)[C@H](CCC(=O)O)NC(=O)[C@@H](NC(=O)[C@H](CCC(=O)O)NC(=O)[C@H](CCC(=O)O)NC(=O)[C@H](CCC(=O)O)NC(=O)[C@H](CC(C)C)NC(=O)[C@@H](NC(=O)[C@H](CC(=O)O)NC(=O)[C@H](CCC(=O)O)NC(=O)[C@H](CCC(=O)O)NC(=O)[C@@H](NC(=O)[C@@H](NC(=O)[C@H](CC(C)C)NC(=O)[C@H](CCC(=O)O)NC(=O)[C@H](CCC(=O)O)NC(=O)[C@H](C)NC(=O)[C@H](CCC(=O)O)NC(C)=O)C(C)C)C(C)C)C(C)C)[C@@H](C)CC)CCCCNC(=O)C[C@@H](C(=O)N[C@@H](CC(C)C)C(=O)N[C@@H](CCC(N)=O)C(N)=O)NC(=O)[C@H](CCC(=O)O)NC1=O` [Peptide 29] (Ac-EAEELVVEEDVLEEEIEQLEERNYALRKEIEDLQ-NH2; lactam 28-32), the “Tm (° C.)” value on cJun bZIP [1] came out at 57.2 ± 0.4 °C. On cJun/TRE DNA interaction, the “fold reduction in cJun/TRE antagonism relative to 1” value amounted to 10.4 fold.
Turning to “Ac-LEKEAEELVVEEDVLEEEIEQLEERNYALRKEIEDLQKQLEKL-NH2 [Peptide 3]”, the “Tm (° C.)” value at cJun bZIP [1] turned out to be 67.9 ± 0.9 °C. In addition, the “fold reduction in antagonism relative to 2” value at cJun/TRE DNA interaction is on record as 2 fold.
For “Ac-LARENEELEKEAEELVVEEDVLEEEIEQLEERNYALRKEIEDLQKQLEKL-NH2 [Peptide 2]”, the “Tm (° C.)” value at cJun bZIP [1] was 68.5 ± 1.1 °C. Besides, at cJun/TRE DNA interaction, the “fold more effective antagonism than 10” value turned out to be 4 fold and the “fold reduction in cJun/TRE antagonism relative to 1” value worked out at 1.2 fold.
With “Ac-EDVLEEEIEQLEERNYALRKEIEDLQKQLEKLGAP-NH2 [Peptide 6]”, the “Tm (° C.)” value at cJun bZIP [1] worked out at 55.1 ± 1.1 °C. Besides, on cJun/TRE DNA interaction, the “fold reduction in antagonism relative to 5” value came out at 1.7 fold and the “fold reduction in cJun/TRE antagonism relative to 1” value came to 9.7 fold.
Take `CC[C@H](C)[C@H](NC(=O)[C@H](CCC(=O)O)NC(=O)[C@@H]1CC(=O)NCCCC[C@H](NC(=O)[C@H](CC(N)=O)NC(=O)[C@H](CCCCN)NC(=O)[C@H](CCC(=O)O)NC(=O)[C@H](CCC(=O)O)NC(=O)[C@H](CC(C)C)NC(=O)[C@H](CCC(N)=O)NC(=O)[C@H](CCC(=O)O)NC(=O)[C@@H](NC(=O)[C@H](CCC(=O)O)NC(=O)[C@H](CCC(=O)O)NC(=O)[C@H](CCC(=O)O)NC(=O)[C@H](CC(C)C)NC(=O)[C@@H](NC(=O)[C@H](CC(=O)O)NC(=O)[C@H](CCC(=O)O)NC(=O)[C@H](CCC(=O)O)NC(=O)[C@@H](NC(=O)[C@@H](NC(=O)[C@H](CC(C)C)NC(C)=O)C(C)C)C(C)C)C(C)C)[C@@H](C)CC)C(=O)N[C@@H](C)C(=O)N[C@@H](CC(C)C)C(=O)N[C@@H](CCCCN)C(=O)N1)C(=O)N[C@@H](CCC(=O)O)C(=O)N[C@@H](CC(=O)O)C(=O)N[C@@H](CC(C)C)C(=O)N[C@@H](CCC(N)=O)C(=O)N[C@@H](CCCCN)C(=O)N[C@@H](CCC(N)=O)C(=O)N[C@@H](CC(C)C)C(=O)N[C@@H](CCC(=O)O)C(=O)N[C@@H](CCCCN)C(=O)N[C@@H](CC(C)C)C(=O)N[C@@H](Cc1ccc(O)cc1)C(N)=O` [Peptide 8]: on cJun bZIP [1], the “Tm (° C.)” value is 67.2 ± 0.8 °C. In addition, the “fold increase in antagonism relative to the linear counterpart 5” value at cJun/TRE DNA interaction is listed as 1.8 fold.
Consider `CC[C@H](C)[C@H](NC(=O)[C@H](CCC(=O)O)NC(=O)[C@@H]1CC(=O)NCCCC[C@H](NC(=O)[C@H](CC(N)=O)NC(=O)[C@H](CCCCN)NC(=O)[C@H](CCC(=O)O)NC(=O)[C@H](CCC(=O)O)NC(=O)[C@H](CC(C)C)NC(=O)[C@H](CCC(N)=O)NC(=O)[C@H](CCC(=O)O)NC(=O)[C@@H](NC(=O)[C@H](CCC(=O)O)NC(=O)[C@H](CCC(=O)O)NC(=O)[C@H](CCC(=O)O)NC(=O)[C@H](CC(C)C)NC(=O)[C@@H](NC(=O)[C@H](CC(=O)O)NC(=O)[C@H](CCC(=O)O)NC(=O)[C@H](CCC(=O)O)NC(=O)[C@@H](NC(=O)[C@@H](NC(=O)[C@H](CC(C)C)NC(=O)[C@H](CCC(=O)O)NC(=O)[C@H](CCC(=O)O)NC(=O)[C@H](C)NC(=O)[C@H](CCC(=O)O)NC(C)=O)C(C)C)C(C)C)C(C)C)[C@@H](C)CC)C(=O)N[C@@H](C)C(=O)N[C@@H](CC(C)C)C(=O)N[C@@H](CCCCN)C(=O)N1)C(=O)N[C@@H](CCC(=O)O)C(=O)N[C@@H](CC(=O)O)C(=O)N[C@@H](CC(C)C)C(=O)N[C@@H](Cc1ccc(O)cc1)C(N)=O` [Peptide 27] (Ac-EAEELVVEEDVLEEEIEQLEEKNKALKDEIEDLY-NH2; lactam 24-28), for which, on cJun bZIP [1], the “Tm (° C.)” value is 52.5 ± 1.4 °C. Also, the “fold reduction in cJun/TRE antagonism relative to 1” value on cJun/TRE DNA interaction was determined as 8.8 fold.
Turning to “Ac-EAEELVVEEDVLEEEIEQLEERNYALRKEIEDLQKQLEKL-NH2 [Peptide 4]”, on cJun bZIP [1], the “Tm (° C.)” value was 64.1 ± 1.5 °C. For the same molecule, on cJun, the “ΔG” value was -9.68 ± 0.115 kcal/mol, the “ΔH” value is -45.399 ± 1.93 kcal/mol and the “−TΔS” value is 35.73 ± 1.94 kcal/mol. Besides, at cJun (c-Jun-peptide interaction), the “Stoichiometry, n” value was 0.91 ± 0.04.

B1: HingeW variant peptide 11 (peptide)
peptide: Ac-EAEELVVEEDVLEEEIEQLEERNYALRKEIEDLQKQ-NH2
notes: Synthetic, NΔ20 CΔ7
Regarding B1, in the series with cJun bZIP [2], the “fold reduction in antagonism, 4 to 11” value was determined as 1.8 fold. Also, in the series with cJun bZIP [3], the “Tm (° C.) of peptide-c-Jun heterodimer” value was determined as 57.1 ° C. The “IC50 CD” value with cJun bZIP [4] was 82.1 µM. Also, in the series with cJun bZIP [5], the “-TΔS” value was -2.14 kcal/mol; the Kd worked out at 1.1 µM; the “Stoichiometry, n” value came to 0.95; the ΔG is -8.15 kcal/mol. The ΔH with cJun bZIP [5] is -5.99 kcal/mol.

B2: HingeW variant peptide 27 (peptide)
peptide: Ac-EAEELVVEEDVLEEEIEQLEEKNKALKDEIEDLY-NH2
modifications: lactam 24-28 (inferred)
notes: Synthetic, NΔ20 CΔ10; also called cyclised form of 26/27
B2: the “fold reduction in antagonism relative to 1” value with cJun bZIP [2] amounted to 8.8 fold. The “Tm (° C.) of peptide-c-Jun heterodimer” value with cJun bZIP [3] amounted to 52.5 ° C. In the series with cJun bZIP [4], the “IC50 CD” value was 118 µM.

B3: HingeW variant peptide 29 (peptide)
peptide: Ac-EAEELVVEEDVLEEEIEQLEERNYALRKEIEDLQ-NH2
modifications: lactam 28-32 (inferred)
notes: Synthetic, NΔ20 CΔ9; also called cyclised form of 28/29
Consider B3, for which the “fold reduction in antagonism relative to 1” value with cJun bZIP [2] was 10.4 fold. The “Tm (° C.) of peptide-c-Jun heterodimer” value in the series with cJun bZIP [3] worked out at 57.2 ° C. In the series with cJun bZIP [4], the “IC50 CD” value is 140 µM.

B4: HingeW variant peptide 25 (peptide)
peptide: Ac-EAEELVVEEDVLEEEIEQLEERNYALRKEIEDL-NH2
notes: Synthetic, NΔ20 CΔ10
B4: in the series with cJun bZIP [2], the “fold reduction in antagonism compared to 4” value came out at 26.7 fold and the “fold reduction in antagonism compared to 11” value is 14.8 fold. For the same molecule, the “Tm (° C.) of peptide-c-Jun heterodimer” value with cJun bZIP [3] is 44.8 ° C. Also, in the series with cJun bZIP [4], the “IC50 CD” value was determined as 1210 µM.

What is called Kd is the equilibrium constant for the complex coming apart.
